In experiment [1] the target is His6-TEV-PDGFRβ (557-1016) (Homo sapiens (Human), UniProt P09619). Description: PDGFRβ HTRF Assay. The class given is biochemical. The note with it: read-out: PDGFR HTRF IC50. A digest of the protocol: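 Human PDGFRβ (557-1016) pre-incubated with compound for 30 min at RT in pH 7.5 HEPES/MgCl2/EGTA/Brij-35/DTT buffer. Reaction started with ATP and TK-biotin peptide, run 3 h at RT, then quenched with EDTA-containing Eu-cryptate antibody/streptavidin-XL665. HTRF 665/620 nm ratio read after 60 min; percent inhibition relative to DMSO and 10 μM imatinib controls.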

The target of the next experiment is VEGFR2, unphosphorylated (Homo sapiens (Human), UniProt P35968). Put plainly: VEGFR ADP GLO Assay. The experiment is classed as biochemical.

The structures appear in SMILES notation.

The record followed here is patent US20240109917A1 (ACTELION PHARMACEUTICALS LTD, priority 2020, published 2024).

VEGFR2, unphosphorylated, sequence (P35968 20-1356): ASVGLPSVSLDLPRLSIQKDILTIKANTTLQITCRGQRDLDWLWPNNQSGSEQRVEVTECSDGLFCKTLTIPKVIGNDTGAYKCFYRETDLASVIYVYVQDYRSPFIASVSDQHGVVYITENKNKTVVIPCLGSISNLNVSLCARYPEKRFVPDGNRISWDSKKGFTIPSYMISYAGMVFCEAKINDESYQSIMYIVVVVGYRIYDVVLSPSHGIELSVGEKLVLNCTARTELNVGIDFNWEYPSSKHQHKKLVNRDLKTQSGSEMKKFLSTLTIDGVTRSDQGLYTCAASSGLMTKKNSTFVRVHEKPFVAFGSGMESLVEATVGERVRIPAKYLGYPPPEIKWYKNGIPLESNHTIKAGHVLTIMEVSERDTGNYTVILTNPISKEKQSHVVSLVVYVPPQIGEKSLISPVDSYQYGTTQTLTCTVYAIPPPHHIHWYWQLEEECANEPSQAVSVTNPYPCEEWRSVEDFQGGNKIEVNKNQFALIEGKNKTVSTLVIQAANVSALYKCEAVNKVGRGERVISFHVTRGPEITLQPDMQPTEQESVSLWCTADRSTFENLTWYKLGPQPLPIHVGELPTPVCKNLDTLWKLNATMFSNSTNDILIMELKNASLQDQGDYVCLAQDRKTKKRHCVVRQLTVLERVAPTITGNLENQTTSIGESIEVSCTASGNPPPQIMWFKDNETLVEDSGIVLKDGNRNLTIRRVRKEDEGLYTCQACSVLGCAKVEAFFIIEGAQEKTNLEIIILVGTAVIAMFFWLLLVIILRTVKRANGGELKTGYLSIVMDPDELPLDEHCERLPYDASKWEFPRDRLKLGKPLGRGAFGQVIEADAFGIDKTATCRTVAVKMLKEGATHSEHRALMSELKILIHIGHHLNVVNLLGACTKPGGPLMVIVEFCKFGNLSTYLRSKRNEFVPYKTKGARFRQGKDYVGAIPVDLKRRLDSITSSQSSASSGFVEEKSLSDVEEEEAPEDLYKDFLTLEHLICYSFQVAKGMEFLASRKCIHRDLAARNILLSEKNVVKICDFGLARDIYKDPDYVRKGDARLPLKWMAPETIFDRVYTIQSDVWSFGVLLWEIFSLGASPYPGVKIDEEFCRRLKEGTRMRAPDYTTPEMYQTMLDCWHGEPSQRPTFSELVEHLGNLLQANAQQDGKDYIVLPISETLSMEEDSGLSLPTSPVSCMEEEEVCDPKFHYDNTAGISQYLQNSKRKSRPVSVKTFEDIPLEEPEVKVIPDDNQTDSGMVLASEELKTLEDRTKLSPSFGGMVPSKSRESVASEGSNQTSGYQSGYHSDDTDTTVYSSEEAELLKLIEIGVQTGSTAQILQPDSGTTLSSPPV
His6-TEV-PDGFRβ (557-1016), sequence (P09619 557-1016): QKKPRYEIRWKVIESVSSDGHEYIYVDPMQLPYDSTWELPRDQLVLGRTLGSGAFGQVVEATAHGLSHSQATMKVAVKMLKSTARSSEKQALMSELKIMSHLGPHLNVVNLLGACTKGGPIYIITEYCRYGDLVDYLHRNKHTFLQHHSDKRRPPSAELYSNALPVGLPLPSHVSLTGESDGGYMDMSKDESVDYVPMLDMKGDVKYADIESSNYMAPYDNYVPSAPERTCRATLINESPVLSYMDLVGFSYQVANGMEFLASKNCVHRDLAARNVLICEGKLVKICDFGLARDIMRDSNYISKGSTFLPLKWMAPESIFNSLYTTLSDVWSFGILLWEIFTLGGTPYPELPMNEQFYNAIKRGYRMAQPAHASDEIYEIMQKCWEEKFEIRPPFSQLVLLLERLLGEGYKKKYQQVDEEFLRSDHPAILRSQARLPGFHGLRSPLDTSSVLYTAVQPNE

With `Cc1ncc(NC(=O)CN2C[C@H](C)O[C@@H](C)C2)cc1NC(=O)c1cnn2cc(-c3c[nH]nc3C)sc12` (relative stereo) [Example 371, N-(5-(2-(trans-2,6-dimethylmorpholino)acetamido)-2-methylpyridin-3-yl)-2-(3-methyl-1H-pyrazol-4-yl)pyrazolo[5,1-b]thiazole-7-carboxamide], the IC50 is 0.4 nM in experiment [1] and greater than 2500 nM against VEGFR2, unphosphorylated.
As for `Cc1ncc(NC(=O)CN2CC(C)(C)C2)cc1NC(=O)c1cnn2cc(-c3cccnc3C)sc12` [Example 390, N-(5-(2-(3,3-dimethylazetidin-1-yl)acetamido)-2-methylpyridin-3-yl)-2-(2-methylpyridin-3-yl)pyrazolo[5,1-b]thiazole-7-carboxamide], the IC50 in experiment [1] is 0.6 nM; against VEGFR2, unphosphorylated, greater than 7500 nM.
In the case of `Cc1ncc(NC(=O)[C@H]2CCCN2C(C)C)cc1NC(=O)c1cnn2cc(-c3cnn4c3OCCC4)sc12` [Example 347, (R)-2-(6,7-dihydro-5H-pyrazolo[5,1-b][1,3]oxazin-3-yl)-N-(5-(1-isopropylpyrrolidine-2-carboxamido)-2-methylpyridin-3-yl)pyrazolo[5,1-b]thiazole-7-carboxamide], the IC50 in experiment [1] is 0.5 nM; against VEGFR2, unphosphorylated it was greater than 7500 nM.
Regarding `Cc1ncc(NC(=O)CN2C[C@H](C)O[C@@H](C)C2)cc1NC(=O)c1cnn2cc(-c3cc[nH]c3)sc12` [Example 365, N-(5-(2-(2,6-trans-dimethylmorpholino)acetamido)-2-methylpyridin-3-yl)-2-(1H-pyrrol-3-yl)pyrazolo[5,1-b]thiazole-7-carboxamide], the 50% inhibitory concentration (IC50) is 0.3 nM in experiment [1] and 596 nM against VEGFR2, unphosphorylated.
Consider `COCCn1cc(-c2cn3ncc(C(=O)Nc4cc(NC(=O)C5CCN(C(C)C)C5)cnc4C)c3s2)cn1` (centres unmarked) [Example 345, N-(5-(1-isopropylpyrrolidine-3-carboxamido)-2-methylpyridin-3-yl)-2-(1-(2-methoxyethyl)-1H-pyrazol-4-yl)pyrazolo[5,1-b]thiazole-7-carboxamide], for which the IC50 in experiment [1] is 1.3 nM; on VEGFR2, unphosphorylated, greater than 7500 nM.
Take `COCCn1cc(-c2cn3ncc(C(=O)Nc4cc(NC(=O)C5CN(C(C)C)C5)cnc4C)c3s2)cn1` [Example 342, N-(5-(1-isopropylazetidine-3-carboxamido)-2-methylpyridin-3-yl)-2-(1-(2-methoxyethyl)-1H-pyrazol-4-yl)pyrazolo[5,1-b]thiazole-7-carboxamide]: the IC50 is 0.6 nM in experiment [1] and greater than 7500 nM against VEGFR2, unphosphorylated.
The like results for `Cc1ncc(NC(=O)CN2CC(C)C2)cc1NC(=O)c1cnn2cc(-c3cnn4c3OCCC4)sc12` [Example 407, 2-(6,7-dihydro-5H-pyrazolo[5,1-b][1,3]oxazin-3-yl)-N-(2-methyl-5-(2-(3-methylazetidin-1-yl)acetamido)pyridin-3-yl)pyrazolo[5,1-b]thiazole-7-carboxamide] were, in that order, 0.3 nM and greater than 7500 nM.
The like results for `COC/C=C/c1cn2ncc(C(=O)Nc3cc(C(=O)NCCN4CCCC4(C)C)cnc3C)c2s1` [Example 361, (E)-N-(5-((2-(2,2-dimethylpyrrolidin-1-yl)ethyl)carbamoyl)-2-methylpyridin-3-yl)-2-(3-methoxyprop-1-en-1-yl)pyrazolo[5,1-b]thiazole-7-carboxamide] were, in that order, 1.3 nM and greater than 7500 nM.
The like results for `Cc1ncc(NC(=O)[C@@H]2CCCN2C(C)C)cc1NC(=O)c1cnn2cc(-c3cnn4c3OCCC4)sc12` [Example 346, (S)-2-(6,7-dihydro-5H-pyrazolo[5,1-b][1,3]oxazin-3-yl)-N-(5-(1-isopropylpyrrolidine-2-carboxamido)-2-methylpyridin-3-yl)pyrazolo[5,1-b]thiazole-7-carboxamide] were, in that order, 0.5 nM and greater than 7500 nM.
For `COc1ncccc1-c1cn2ncc(C(=O)Nc3cc(NC(=O)CN4CC(C)C4)cnc3C)c2s1` [Example 405, 2-(2-methoxypyridin-3-yl)-N-(2-methyl-5-(2-(3-methylazetidin-1-yl)acetamido)pyridin-3-yl)pyrazolo[5,1-b]thiazole-7-carboxamide], the IC50 turned out to be 0.2 nM in experiment [1] and 6660 nM against VEGFR2, unphosphorylated.
